# From EP0215063B1, “PYRIDO (2,3-d )PYRIMIDIN DERIVATIVES” (priority 1985, dated 1986)
# Several values for one entry are separate records, joined by “and”; a condition that tells them apart may be missing. Equal entries are not always repeated. Where two headings read alike, the source gives them in different places.
# Columns and labels:
# [1] = molecular target: T1, Dihydrofolate Reductase (DHFR) (Homo sapiens, UniProt P00374); assay: Inhibition of Dihydrofolate Reductase (DHFR); format: biochemical
# T1 sequence (P00374 1-187): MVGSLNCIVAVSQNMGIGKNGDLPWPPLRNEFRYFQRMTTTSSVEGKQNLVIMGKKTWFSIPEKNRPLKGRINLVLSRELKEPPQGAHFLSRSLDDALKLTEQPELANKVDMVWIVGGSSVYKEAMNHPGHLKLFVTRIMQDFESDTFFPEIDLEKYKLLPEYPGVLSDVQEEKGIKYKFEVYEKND
# [2] = molecular target: T2, Folate Polyglutamate Synthetase (Mus musculus, UniProt P48760); assay: Substrate for Folate Polyglutamate Synthetase (partially purified mouse liver FPGS); format: biochemical
# T2 construct: Incubation with partially purified mouse liver FPGS; from tissue; host or cells: mouse liver
# T2 sequence (P48760 43-587): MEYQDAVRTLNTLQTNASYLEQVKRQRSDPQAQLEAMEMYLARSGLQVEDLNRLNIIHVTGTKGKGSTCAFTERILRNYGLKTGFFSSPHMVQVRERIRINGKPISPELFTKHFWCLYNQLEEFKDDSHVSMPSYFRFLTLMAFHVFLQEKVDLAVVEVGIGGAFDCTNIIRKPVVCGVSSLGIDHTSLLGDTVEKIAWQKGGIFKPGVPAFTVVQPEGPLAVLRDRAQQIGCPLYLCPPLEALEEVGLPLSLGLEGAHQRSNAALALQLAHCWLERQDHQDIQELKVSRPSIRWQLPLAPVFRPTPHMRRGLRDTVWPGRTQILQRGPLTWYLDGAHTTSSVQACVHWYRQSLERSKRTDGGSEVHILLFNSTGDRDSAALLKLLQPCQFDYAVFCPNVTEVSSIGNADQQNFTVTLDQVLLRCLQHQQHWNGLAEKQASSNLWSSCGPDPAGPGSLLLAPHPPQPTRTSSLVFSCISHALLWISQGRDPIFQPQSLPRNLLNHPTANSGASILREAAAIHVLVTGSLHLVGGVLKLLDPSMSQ
# [3] = tested on: L1210 murine leukemic cells; assay: Inhibition of L1210 murine leukemic cells in tissue culture; format: cell-based; settings: Mus musculus, read-out: IC₅₀
# mouse L1210 leukemia = settings: literature; cited from earlier work
# [4] = literature; cited from earlier work
# dihydrofolate reductase = molecular target: T3, dihydrofolate reductase (Homo sapiens, UniProt P00374); settings: literature (De Graw et al.); cited from earlier work
# T3 sequence (P00374 1-187): T1 sequence (P00374 1-187)
# L-1210 leukemia = assay: Increase in life span, % ILS (Table 5, title only as image); format: in vivo
# [5] = tested on: Methotrexate-Resistant L-1210 Leukemia; assay: Effect on Methotrexate-Resistant L-1210 Leukemia; format: in vivo; settings: for Mean Increased Life span in days: in vivo
# [6] = tested on: X5563 Plasma Cell Myeloma; settings: mouse, in vivo
# 6C3HED Lymphosarcoma = assay: Subcutaneous tumor growth inhibition in mice; settings: mouse, in vivo
# B-16 = assay: Subcutaneous tumor growth inhibition in mice; settings: mouse, in vivo
# [7] = tested on: C3H Mammary Adenocarcinoma; assay: Subcutaneous tumor growth inhibition in mice; settings: mouse, in vivo
# Lewis Lung Carcinoma = assay: Subcutaneous tumor growth inhibition in mice; settings: mouse, in vivo
# Madison Lung = assay: Subcutaneous tumor growth inhibition in mice; settings: mouse, in vivo
# [8] = molecular target: T2, Folate Polyglutamate Synthetase; settings: relative to folic acid; published data (Moran et al.); cited from earlier work
# [9] = literature (Taylor et al.); cited from earlier work
# [10] = relative to folic acid, one hour at 37°C
smiles,measurement,setting,value
"Nc1nc(O)c2cc(CCc3ccc(C(=O)N[C@@H](CCC(=O)O)C(=O)O)cc3)cnc2n1 [Compound 2, N-(4-[2-(2-amino-4-hydroxypyrido[2,3-d]pyrimidin-6-yl)ethyl]benzoyl)-L-glutamic acid]",IC50,[1],49000 nM
same,Rel Vmax,[2]; [10],0.90 ± 0.10
same,IC50,[3],> 100000 nM
"Nc1nc(N)c2cc(CCc3ccc(C(=O)N[C@@H](CCC(=O)O)C(=O)O)cc3)ccc2n1 [5,8,10-trideazaaminopterin]",activity against mouse L1210 leukemia (in words),mouse L1210 leukemia,exhibits activity
Nc1nc(N)c2nc(CCc3ccc(C(=O)N[C@@H](CCC(=O)O)C(=O)O)cc3)cnc2n1 [10-Deaza-aminopterin],antimetabolic activity (in words),[4],highly active
"Nc1nc2ccc(CCc3ccc(C(=O)N[C@@H](CCC(=O)O)C(=O)O)cc3)nc2c(=O)[nH]1 [8,10-Dideazafolic acid]",effectiveness as a dihydrofolate reductase inhibitor (in words),dihydrofolate reductase,only marginally effective
"Nc1nc(N)c2nc(CCc3ccc(C(=O)N[C@@H](CCC(=O)O)C(=O)O)cc3)ccc2n1 [8,10-Dideazaaminopterin]",antimetabolic activity (in words),[4],active
"Nc1nc2c(c(=O)[nH]1)CC(CCc1ccc(C(=O)N[C@@H](CCC(=O)O)C(=O)O)cc1)CN2 (stereo partly drawn) [Compound 4, N-(4-[2-(2-amino-4-hydroxy-5,6,7,8-tetrahydropyrido[2,3-d]pyrimidin-6-yl)ethyl]benzoyl)-L-glutamic acid]",inhibition of dihydrofolate reductase (in words),[1],weak inhibitor
same,Rel Vmax,[2],1.24 ± 0.10
same,activity against L-1210 leukemia (in words),L-1210 leukemia; in vivo,good activity
same,% ILS,"L-1210 leukemia; in vivo, 2 mg/kg",27%
same,% ILS,"L-1210 leukemia; in vivo, 4 mg/kg",35%
same,% ILS,"L-1210 leukemia; in vivo, 8 mg/kg",59%
same,% ILS,"L-1210 leukemia; in vivo, 12 mg/kg",63%
same,Mean Increased Life span in days,[5]; 2 mg/kg,+8 days
same,Mean Increased Life span in days,[5]; 4 mg/kg,+11 days
same,Mean Increased Life span in days,[5]; 8 mg/kg,+17 days
same,Mean Increased Life span in days,[5]; 12 mg/kg,+25 days
same,% INHIBITION,[6],100%
same,toxicity (footnote),[6],† Toxic
same,% INHIBITION,6C3HED Lymphosarcoma,91% and 100%
same,% INHIBITION,B-16,98% and 99% and 100%
same,% INHIBITION,[7],86% and 100%
same,% INHIBITION,Lewis Lung Carcinoma,58% and 77% and 94% and 100%
same,% INHIBITION,Madison Lung,54% and 72% and 87% and 90%
Nc1nc2ncc(CCc3ccc(C(=O)N[C@@H](CCC(=O)O)C(=O)O)cc3)nc2c(=O)[nH]1 [10-deazafolic acid],antimetabolic activity (in words),[4],no significant activity
"Nc1nc(N)c2c(n1)NCC(CCc1ccc(C(=O)N[C@@H](CCC(=O)O)C(=O)O)cc1)C2 (stereo partly drawn) [Compound 3, N-(4-[2-(2,4-diamino-5,6,7,8-tetrahydropyrido[2,3-d]pyrimidin-6-yl)ethyl]benzoyl)-L-glutamic acid]",IC50,[1],71 nM
same,Rel Vmax,[2]; [10],1.61 ± 0.05
same,IC50,[3],3.3 nM
same,% ILS,L-1210 leukemia; dose 1 mg/kg,111%
"CN(Cc1cnc2nc(N)nc(N)c2n1)c1ccc(C(=O)N[C@@H](CCC(=O)O)C(=O)O)cc1 [Methotrexate, methotrexate, reference compound]",Mean Increased Life span,[5]; dose 2 mg/kg,0 days
Nc1nc2c(c(=O)[nH]1)NC(CNc1ccc(C(=O)N[C@@H](CCC(=O)O)C(=O)O)cc1)CN2 (some centres unmarked) [FH4],Rel Vmax,[8],1.31 ± 0.07
"Nc1nc(N)c2cc(CCc3ccc(C(=O)N[C@@H](CCC(=O)O)C(=O)O)cc3)cnc2n1 [Compound 1, N-(4-[2(2,4-diaminopyrido[2,3-d]-pyrimidin-6-yl)ethyl]benzoyl)-L-glutamic acid]",IC50,[1],43 nM
same,Rel Vmax,[2]; [10],0.35 ± 0.02
same,IC50,[3],17 nM
same,% ILS,L-1210 leukemia; dose 4 mg/kg,130%
Nc1nc2ncc(CNc3ccc(C(=O)N[C@@H](CCC(=O)O)C(=O)O)cc3)cc2c(=O)[nH]1 [5-Deazafolic acid],cytotoxicity (in words),[9],only weakly cytotoxic
"Nc1nc2ccc(CCc3ccc(C(=O)N[C@@H](CCC(=O)O)C(=O)O)cc3)cc2c(=O)[nH]1 [5,8,10-trideazafolic acid]",activity against mouse L1210 leukemia (in words),mouse L1210 leukemia,only marginal activity
